The source of these data is PMC10552892, “Ebselen oxide and derivatives are new allosteric HER2 inhibitors for HER2‐positive cancers” (Molecular Oncology, 2023).

The target in test [1] is T1, JMHER2/FERME interaction (biot-JMHER2 peptide and GST-FERME, N-terminal FERM domain of ezrin) (Homo sapiens, UniProt P04626).
T1 construct: purchased Proteogenix
In words: AlphaScreen competition of HER2 juxtamembrane peptide / ezrin FERM domain interaction. As to conditions: for Inhibition of HER2-FERME interaction, % / EC50: AlphaScreen, 20 h; for Inhibition of HER2-FERME interaction, %: compound 0–50 μM, biot-JMHER2 5 nM; for EC50: read-out: EC50, μM (inhibition of HER2-FERME interaction); for Competition with HER2/FERM interaction / binding affinity for JMHER2: compared to ebselen oxide. The format is binding. Here is the method:
Biotinylated peptide derived from HER2 cytosolic juxtamembrane region (JMHER2, […] ) has been synthesized by Proteogenix (Schiltigheim, France). The binding reaction was described previously. Briefly, white 384‐well Optiplates (PerkinElmer, Whalham, MA, USA) were used to prepare GST‐FERME and biotinylated peptide in a binding buffer (PBS, pH 7.4, 5 mM MgCl2, and 0.02% CHAPS). GST‐FERME was incubated with biotinylated‐HER2 for 30 min at room temperature. AlphaScreen® Streptavidin Donor beads (20 μg·mL^−1) and Glutathione AlphaLISA® Acceptor Beads (20 μg·mL^−1) were added to the wells for overnight incubation in the dark and at room temperature. Light signal was detected with the EnVision® multilabel plate reader (PerkinElmer).
Ebselen came out as an interesting hit. Ebselen is a synthetic organoselenium compound with the anti‐inflammatory and antioxidant property that has been evaluated in clinical trials for ischemic stroke and acute hearing loss. However, in vivo, ebselen rapidly reacts with peroxynitrite to form ebselen oxide. […] In addition, using surface plasmon resonance (SPR), we confirmed that both compounds could directly bind to JMHER2 (Fig. 1E,F). […] The slight decrease in HER2 expression was not significant. To examine whether HER2 inhibition by ebselen oxide was dependent on JMHER2/FERME interaction, we transfected HBMEC cells with a previously described glycoprotein D‐tagged HER2 form mutated on the critical amino acids involved in ERM binding (gD‐HER2‐EBM*).

For test [2], the target named is T2, HER2 (pY1248) in SKBR3 (Homo sapiens, UniProt P04626).
T2 construct: host or cells: SKBR3
In words: HER2 activation (pY1248-HER2) in SKBR3 cells, western/dot blot. Type of test: cell-based. Set-up: Inhibition of HER2 activation / HER2 inhibition, %: concentration or dose not given beside the values. As to conditions: for Inhibition of HER2 activation/activity: HER2+ breast cancer cells (SKBR3 in Fig. S1); for HER2 inhibition, % / EC50: Table 1, HER2+ breast cancer cells (ebselen oxide value equals SKBR3 48 h); for EC50: read-out: EC50, μM (HER2 inhibition).

Test [3] deals with HER2+ breast cancer cells. In words: HER2-dependent (anchorage-dependent) proliferation, Table 1. The format is cell-based, human. An excerpt:
Given the promising effects of ebselen oxide, we then evaluated several structurally related compounds in order to define the structural determinants essential for HER2 binding and inhibition. […] These observations allowed us to define a pharmacophore of ebselen derivatives required for HER2 inhibition where atoms in position Y and R (shown in red in structure) can be modified as followed: Y is either a S or a Se=O and R is either H or Cl or Me but not OMe or CF3 (Table 1).

Test [4] addresses T3, HER2 (pY1248) in NCI-N87 (Homo sapiens, UniProt P04626).
T3 construct: host or cells: NCI-N87
In words: HER2 activation in NCI-N87 gastric cancer cells, western blot. Type of test: cell-based. How it is done:
(A-C) HER2-positive […] (SKBR3, A; NCI-N87, B; BT474, C) treated or not with Ebselen
indicated, were analyzed by western blot to evaluate HER2 activation status using antibodies directed
Proliferation was assessed by Incucyte during 4 days.
Background: A western blot detects proteins with antibodies after separation by electrophoresis.

Test [5] deals with SKBR3. In words: Incucyte proliferation, single agents and combinations, SKBR3. As to conditions: Homo sapiens, SK-BR-3, 96 h; read-out: Reduction/inhibition of cell proliferation. The format is cell-based. How it is done:
(§1) (A–C) Proliferation curves of HER2‐positive (SKBR3, A; BT474, B; NCI‐N87, C) cancer cell lines treated or not with ebselen oxide (10 μM), lapatinib (10–1000 nM), or combination of these agents, as indicated. Proliferation was assessed overtime by Incucyte during 4 days. Data are mean ± SD (n = 8–12) of a representative experiment out of 4 (A), 3 (B), or 2 (C) independent experiments. […] Proliferation was assessed by Incucyte during 4 days. […] Scale bars are […].

Test [6] deals with BT474. In words: Incucyte proliferation, single agents and combinations, BT474. As to conditions: Homo sapiens, BT-474, 96 h; read-out: Reduction/inhibition of cell proliferation. Type of test: cell-based. How it is done:
as §1

The test system of test [7] is NCI-N87. As to the kind of experiment: Incucyte proliferation, single agents and combinations, NCI-N87. As to conditions: Homo sapiens, NCI-N87, 96 h; read-out: Reduction/inhibition of cell proliferation. The format is cell-based. Here is the method:
as §1

Test [8] deals with NCI-N87. As to the kind of experiment: Anchorage-independent growth (spheroid assay, ULA plates), NCI-N87. Type of test: cell-based, human. Particulars: ebselen oxide 10 μM, lapatinib 10 nM, trastuzumab 10 μg·mL−1, alone or combined.
Procedure: 5.10^3 cells/24‐well were seeded in a complete medium in ULA plates (Corning® Costar® (Corning, NY, USA) C LS3473‐24EA) in the presence of indicated compounds. Spheroids were imaged 6–8 days later with a phase‐contrast microscope, and their areas were measured using IMAGEJ software.
Proliferation was assessed overtime by Incucyte during 4 days. Data are mean ± SD (n = 8–12) of a representative experiment out of 4 (A), 3 (B), or 2 (C) independent experiments. One‐way ANOVA followed by Sidak multiple comparison test, (*, compared with Vehicle; ° and #, respectively, compared with lapatinib 10 and 1000 nM) ***P < 0.001, ****P < 0.0001. […] Proliferation was assessed by Incucyte during 4 days. Data are mean ± SD (n = 8–12) of a representative experiment out of two independent experiments. […] Images of a representative experiment out of 3 (G) or 4 (H) independent experiments and quantification of the colony total area are shown where data are mean ± SEM. One‐way ANOVA followed by multiple comparison test, *P < 0.05, **P < 0.01. Scale bars are 100 μM.
In test [9] the target is T4, HER2 (pY1248) in SKOV3 (Homo sapiens, UniProt P04626).
T4 construct: host or cells: SKOV3
As to the kind of experiment: HER2 activation in SKOV3 ovarian cancer cells, western blot. Type of test: cell-based. As to conditions: ebselen oxide 0–10 μM 24 h, AG1478 5 μM. How it is done:
Human bone marrow endothelial cells (HBMECs) kindly provided by Dr. B. Weksler (Weill Medical College of Cornell University, NY) were cultured as described previously. The human breast cancer cell lines [SKBR3 (RRID:CVCL_0033), BT474 (RRID:CVCL_0179), and MDA‐MB‐231 (RRID:CVCL_0062)], the human gastric [NCI‐87 (RRID:CVCL_1603)] and ovarian [SKOV3 (RRID:CVCL_0532)] cancer cell lines were obtained from the American Type Culture Collection (Manassas, VA) and were maintained in DMEM containing 10% FBS. All cell lines were cultured under 5% CO2 at 37 °C. HBMECs were transfected using Amaxa Inc nucleofector system (Kit V and U015 program). […]
Fig. 3 Ebselen oxide inhibits HER2 activation and HER2‐dependent proliferation in gastric and ovarian HER2^+ cancer cells. (A) HER2‐positive NCI‐87 gastric cancer cells were treated with ebselen oxide (0–20 μM) for 24 h, lysed, and analyzed by western blot using anti‐pY1248‐HER2, HER2, and β‐tubulin antibodies. […] (B) HER2‐positive SKOV3 ovarian cancer cells were treated with ebselen oxide (0–10 μM) for 24 h, lysed, and analyzed by western blot using anti‐pY1248‐HER2, HER2, and ezrin antibodies. […] (C, D) Proliferation curves of NCI‐N87 gastric (C) or SKOV3 ovarian (D) cancer cells treated with vehicle or 7–10 μM ebselen oxide measured by MTT assay. […]

In test [10] the test system is NCI-N87. As to the kind of experiment: Proliferation of NCI-N87 cells. The format is cell-based, human. Particulars: ebselen oxide 7–10 μM, AG1478 5 μM. How it is done:
Fig. 3 Ebselen oxide inhibits HER2 activation and HER2‐dependent proliferation in gastric and ovarian HER2^+ cancer cells. (A) HER2‐positive NCI‐87 gastric cancer cells were treated with ebselen oxide (0–20 μM) for 24 h, lysed, and analyzed by western blot using anti‐pY1248‐HER2, HER2, and β‐tubulin antibodies. A representative western blot is shown out of 4 independent experiments. (B) HER2‐positive SKOV3 ovarian cancer cells were treated with ebselen oxide (0–10 μM) for 24 h, lysed, and analyzed by western blot using anti‐pY1248‐HER2, HER2, and ezrin antibodies. A western blot is shown (n = 1). (C, D) Proliferation curves of NCI‐N87 gastric (C) or SKOV3 ovarian (D) cancer cells treated with vehicle or 7–10 μM ebselen oxide measured by MTT assay. Data are mean ± SEM (n = 9–12) of three independent experiments.
Supplementary figure 4: NCI-N87 and SKOV3 cancer cell lines are addicted to the HER2 pathway
(A) NCI-N87 cells were treated (+) or not (-) with a non-specific HER2 inhibitor AG1478 (5 µM). Whole cell lysates were analyzed by western blot with pY1248 HER2, HER2 and pERK antibodies.
(B) SKOV3 cells were treated (+) or not (-) with a non-specific HER2 inhibitor AG1478 (5 µM). Whole cell lysates were analyzed by western blot with pY1248 HER2, HER2, pERK or beta-tubulin antibodies.
(C) Proliferation curves of NCI-N87 treated or not with AG1478 (5 µM). Data are mean ± sem (n=4-6). 2- […]

Test [11] concerns SKOV3. As to the kind of experiment: Proliferation of SKOV3 cells. The format is cell-based, human. As to conditions: ebselen oxide 7–10 μM, AG1478 5 μM.

T2 sequence (P04626 23-1255): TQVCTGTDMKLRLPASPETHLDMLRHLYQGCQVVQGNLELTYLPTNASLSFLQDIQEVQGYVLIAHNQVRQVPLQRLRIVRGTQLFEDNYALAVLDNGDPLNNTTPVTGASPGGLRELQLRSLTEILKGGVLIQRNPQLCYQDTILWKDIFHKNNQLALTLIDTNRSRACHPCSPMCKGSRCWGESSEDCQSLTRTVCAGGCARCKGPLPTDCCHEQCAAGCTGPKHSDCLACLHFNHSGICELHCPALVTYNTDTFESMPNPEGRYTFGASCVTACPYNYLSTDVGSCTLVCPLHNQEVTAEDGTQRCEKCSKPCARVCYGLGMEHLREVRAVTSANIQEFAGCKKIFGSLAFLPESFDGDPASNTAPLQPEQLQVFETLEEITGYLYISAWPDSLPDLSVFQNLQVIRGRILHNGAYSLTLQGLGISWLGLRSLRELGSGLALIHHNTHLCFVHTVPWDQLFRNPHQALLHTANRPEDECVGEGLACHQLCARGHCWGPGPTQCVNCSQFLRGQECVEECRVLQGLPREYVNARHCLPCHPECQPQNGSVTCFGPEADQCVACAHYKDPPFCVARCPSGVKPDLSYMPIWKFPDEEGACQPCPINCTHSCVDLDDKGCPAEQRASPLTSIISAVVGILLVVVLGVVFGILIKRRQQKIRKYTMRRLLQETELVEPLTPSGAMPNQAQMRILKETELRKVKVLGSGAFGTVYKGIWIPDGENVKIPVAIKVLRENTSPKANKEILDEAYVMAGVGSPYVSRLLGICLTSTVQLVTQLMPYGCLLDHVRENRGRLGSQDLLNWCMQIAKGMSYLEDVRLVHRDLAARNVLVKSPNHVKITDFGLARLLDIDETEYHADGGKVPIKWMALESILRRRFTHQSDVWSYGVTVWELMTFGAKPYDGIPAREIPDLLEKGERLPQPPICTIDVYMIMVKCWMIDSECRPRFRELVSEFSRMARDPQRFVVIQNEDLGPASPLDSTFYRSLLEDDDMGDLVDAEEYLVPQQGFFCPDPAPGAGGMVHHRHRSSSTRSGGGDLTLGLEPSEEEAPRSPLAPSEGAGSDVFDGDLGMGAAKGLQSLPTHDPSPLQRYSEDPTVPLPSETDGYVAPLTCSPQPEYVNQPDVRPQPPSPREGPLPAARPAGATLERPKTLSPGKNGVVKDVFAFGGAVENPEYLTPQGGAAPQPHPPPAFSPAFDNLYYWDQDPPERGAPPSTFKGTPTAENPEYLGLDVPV
T3 sequence (P04626 23-1255): as above
T4 sequence (P04626 23-1255): as above

Broadly, the EC50 is the concentration that produces a half-maximal response. `O=c1c2ccccc2sn1-c1ccc(C(F)(F)F)cc1` [Analog 7, 2‐[4‐(trifluoromethyl)phenyl]‐1,2‐benzothiazol‐3‐one]: in [1], the “Inhibition of HER2-FERME interaction, %” value came to 100%; the EC50 was 97 µM; the “Competition with HER2/FERM interaction / binding affinity for JMHER2” value is reported as “drastically reduced”.
Turning to `Cc1ccc(-n2c(=O)c3ccccc3[s+]2[O-])cc1` (stereo not drawn) [Analog 6, 2‐(4‐Methylphenyl)‐1‐oxo‐1,2‐benzothiazol‐3‐one], in test [1], the “Inhibition of HER2-FERME interaction, %” value is listed as 43.6% and the EC50 is 2.53 µM. Also, in test [2], the “Inhibition of HER2 activation/activity” value is recorded as “no or low inhibition” and the “HER2 inhibition, %” value came to 0.2%. In addition, the “Effect on proliferation of HER2+ breast cancer cells” value in [3] is “no or low inhibition”.
As for `CS(=O)(=O)CCNCc1ccc(-c2ccc3ncnc(Nc4ccc(OCc5cccc(F)c5)c(Cl)c4)c3c2)o1` [lapatinib, Lapatinib ditosylate, reference compound], the “Effect on HER2 activation, single agents and combination” value in test [2] (SKBR3, ebselen oxide 10 μM, lapatinib 10 nM) is on record as “partially decreased”; in [4] (ebselen oxide 10 μM, lapatinib 10 nM) it was “partially decreased”. Further, the inhibition at 0.01 µM in test [5] amounted to 39%; in [6] it was 18%; in test [7], 53%. Further, in test [8], the “Reduction of anchorage-independent growth (spheroid assay)” value was determined as 35%.
Regarding `Cc1ccc(-n2sc3ccccc3c2=O)cc1` [Analog 1, 2‐(4‐methylphenyl)‐1,2‐benzisothiazol‐3(2H)‐one], in test [1], the “Inhibition of HER2-FERME interaction, %” value was 45.0%; the EC50 amounted to 0.716 µM; the “Competition with HER2/FERM interaction / binding affinity for JMHER2” value is reported as “competed”. Further, in [2], the “Inhibition of HER2 activation/activity” value was “inhibited”; the “HER2 inhibition, %” value came to 65.0%; the EC50 worked out at 39.8 µM. Also, in [3], the “Effect on proliferation of HER2+ breast cancer cells” value is “reduced”.
On to `CC(C)c1ccc(N2Cc3ccccc3C2=O)cc1` [Analog 5, 2‐(4‐isopropyl phenyl)‐1‐isoindolinone], for which, in test [1], the “Inhibition of HER2-FERME interaction, %” value was 49.0%; the EC50 turned out to be 0.255 µM; the “Competition with HER2/FERM interaction / binding affinity for JMHER2” value is “greater binding affinity”. Moreover, in [2], the “Inhibition of HER2 activation/activity” value is “no or low inhibition”; the “HER2 inhibition, %” value worked out at 16.3%; the EC50 was 2 µM. The “Effect on proliferation of HER2+ breast cancer cells” value in [3] is listed as “no or low inhibition”.
As to `O=c1c2ccccc2sn1-c1ccc(Cl)cc1` [Analog 2, 2‐(4‐chlorophenyl)‐1,2‐benzisothiazol‐3(2H)‐one], in test [1], the “Inhibition of HER2-FERME interaction, %” value is recorded as 40.4%; the half-maximal effective concentration (EC50) is 1.08 µM; the “Competition with HER2/FERM interaction / binding affinity for JMHER2” value was “competed”. For the same compound, in test [2], the “Inhibition of HER2 activation/activity” value is listed as “inhibited”; the “HER2 inhibition, %” value came out at 75.4%; the EC50 turned out to be 41.7 µM. For the same compound, the “Effect on proliferation of HER2+ breast cancer cells” value in test [3] is recorded as “reduced”.
As for `COc1cc2ncnc(Nc3cccc(Cl)c3)c2cc1OC` [AG1478, Tyrphostin AG1478, reference compound], the “Effect on HER2 activation” value in [4] (ebselen oxide 0–20 μM 24 h, AG1478 5 μM) is “decrease”; in test [9], “decrease”. Besides, the “Effect on proliferation” value in test [10] and in [11] was “decrease” in each case.
As to `O=c1c2ccccc2[s+]([O-])n1-c1ccc(Cl)cc1` (stereo not drawn) [Analog 8, 2‐(4‐chlorophenyl)‐1‐oxo‐1,2‐benzothiazol‐3‐one], in test [1], the “Inhibition of HER2-FERME interaction, %” value turned out to be 100%; the EC50 was found to be 95.1 µM; the “Competition with HER2/FERM interaction / binding affinity for JMHER2” value is on record as “drastically reduced”.
As to `O=C1c2ccccc2C(=O)N1c1ccccc1` [Analog 4, N‐phenylphtalimide], in test [1], the “Inhibition of HER2-FERME interaction, %” value is listed as 47.3%; the concentration for a half-maximal effect (EC50) was found to be 0.003 µM; the “Competition with HER2/FERM interaction / binding affinity for JMHER2” value is recorded as “greater binding affinity”. In addition, in test [2], the “Inhibition of HER2 activation/activity” value was “no or low inhibition” and the “HER2 inhibition, %” value amounted to 0.0%. Besides, the “Effect on proliferation of HER2+ breast cancer cells” value in test [3] is on record as “no or low inhibition”.
